EC50 data for 78 molecules are collected here from PubChem BioAssay AID602356 (Sanford-Burnham Center for Chemical Genomics, 2012).

“And” between values parts separate entries of the source, which are not always exact repeats. Identical values can stand only once. The source made the active and inactive calls. No rule for the calls is given here. Where only a bound is given, the exact number is not on record here.

In this assay the target is Neurotensin receptor type 1 (Homo sapiens) (UniProt P30989). Put plainly: neurotensin receptor 1 activation – imaging, image-based, set 3, SAR follow-up (AID 602356). The settings on record: NTR1 image-based agonist assay, cellular imaging.
Sequence of Neurotensin receptor type 1 (Homo sapiens) (P30989 whole entry, looked up): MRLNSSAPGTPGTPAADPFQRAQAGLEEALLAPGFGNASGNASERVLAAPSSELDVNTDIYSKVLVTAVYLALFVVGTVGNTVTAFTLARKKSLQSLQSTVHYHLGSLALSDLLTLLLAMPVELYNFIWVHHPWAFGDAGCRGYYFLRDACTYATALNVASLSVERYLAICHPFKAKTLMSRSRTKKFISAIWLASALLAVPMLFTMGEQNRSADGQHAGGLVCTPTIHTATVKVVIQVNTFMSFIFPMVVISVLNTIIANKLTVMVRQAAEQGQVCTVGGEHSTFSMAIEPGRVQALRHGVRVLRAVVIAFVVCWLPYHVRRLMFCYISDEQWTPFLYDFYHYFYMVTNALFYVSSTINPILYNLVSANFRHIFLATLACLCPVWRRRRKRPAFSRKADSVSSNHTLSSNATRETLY
On to `COc1cc2c3nnc(-c4ccc(F)cc4)c-3cn(Cc3ccc(OC(F)(F)F)cc3)c2cc1OC`, for which the EC50 is 12.3 µM.

Turning to `COc1cc2nc(C3CC3)nc(N3CCNCC3)c2cc1OC`, the EC50 is > 80 µM (inactive).

As to `Cc1ccc(-c2nnc3c4cc5c(cc4n(Cc4ccc(F)cc4)cc2-3)OCO5)cc1C`, the EC50 result was “inactive”.

Regarding `C=Cc1nc(N2CCN(c3ccccc3OC)CC2)c2cc(OC)c(OC)cc2n1`, the EC50 is 7.03 µM.

Take `COc1cc2c3nnc(-c4ccc(F)cc4)c-3cn(CC3CC3)c2cc1OC`: the EC50 result is “inactive”.

Regarding `COc1cc2nc(Cc3ccccc3)nc(N3CCN(c4ccccc4OC)CC3)c2cc1OC`, the EC50 is 13.8 µM.

For the molecule `COc1cc2nc(CCN(C)C)nc(N3CCN(c4ccccc4OC)CC3)c2cc1OC`, the EC50 is > 80 µM (inactive).

For the molecule `CCc1ccc(-c2nnc3c4cc(OC)c(OC)cc4n(Cc4ccccc4)cc2-3)cc1`, the EC50 result is “inactive”.

With `Cc1ccc(Cn2cc3c(-c4ccc(F)cc4)nnc-3c3ccccc32)cc1`, the EC50 is > 80 µM (inactive).

On to `COc1ccccc1-c1cc(C(=O)N[C@@H](CC(C)C)C(=O)O)nn1-c1ccnc2cc(Cl)ccc12`, for which the concentration for a half-maximal effect (EC50) is 0.966 µM.

In the case of `COc1cc2c3nnc(-c4ccccc4)c-3cn(Cc3ccc(C)cc3)c2cc1OC`, the EC50 is > 80 µM (inactive).

For the molecule `COc1cc2c3nnc(-c4ccc(F)cc4)c-3cn(Cc3ccccc3F)c2cc1OC`, the EC50 was 2.52 µM.

Turning to `COc1ccc2c3nnc(-c4ccc(C)cc4)c-3cn(Cc3ccccc3)c2c1`, the EC50 was 15.8 µM.

As to `COc1cc2c3nnc(-c4ccc(F)cc4)c-3cn(Cc3ccccc3N(C)C)c2cc1OC`, the EC50 is 4.36 µM and 4.14 µM.

Consider `COc1cccc(OC)c1-c1nc(C(=O)N[C@H](CC(C)C)C(=O)O)cn1-c1ccnc2cc(Cl)ccc12`, for which the EC50 was 9.41 µM.

As for `Clc1ccc(-c2nnc3c4cc5c(cc4n(Cc4ccccc4)cc2-3)OCO5)cc1`, the EC50 was > 80 µM (inactive).

On to `Cc1ccc(Cn2cc3c(-c4ccc(C)cc4)nnc-3c3cc4c(cc32)OCO4)cc1`, for which the EC50 result is “inactive”.

Regarding `COc1cccc(OC)c1-c1cc(C(=O)NC2(C(=O)O)C3CC4CC(C3)CC2C4)nn1-c1ccnc2cc(Cl)ccc12` (stereo not drawn), the EC50 result was “inactive”.

Regarding `COc1ccccc1N1CCN(c2nc(C3CCC3)nc3ccccc23)CC1`, the EC50 entry was “inactive”.

In the case of `COc1ccc2c3nnc(-c4ccc(C)cc4)c-3cn(Cc3ccc(F)cc3)c2c1`, the EC50 is 11.2 µM.

Turning to `CCOc1ccc(-c2nnc3c4cc(OC)c(OC)cc4n(Cc4ccccc4)cc2-3)cc1`, the EC50 was 8.92 µM.

Turning to `CCc1nc(N2CCN(c3ccccc3OC)CC2)c2cc(OC)c(OC)cc2n1`, the EC50 entry was “inactive”.

As for `COc1cc2c3nnc(-c4ccc(F)cc4)c-3cn(Cc3ccncc3)c2cc1OC`, the EC50 was 18.4 µM.

On to `COc1cc2c3nnc(-c4ccc(F)cc4)c-3cn(Cc3ccccc3)c2cc1OC`, for which the EC50 is 7.24 µM and 7.42 µM.

Consider `COc1cccc(N2CCN(c3nc(C4CCC4)nc4cc(OC)c(OC)cc34)CC2)c1`, for which the EC50 is 17.2 µM.

In the case of `Fc1ccc(Cn2cc3c(-c4ccc(F)cc4)nnc-3c3cc4c(cc32)OCO4)cc1`, the EC50 was 7.29 µM.

As for `COc1cc2nc(C3CC3)nc(N3CCN(c4ccccc4OC)CC3)c2cc1OC`, the EC50 is 2.18 µM and 1.89 µM.

Take `COc1cc2nc(C3CCC3)nc(N3CCN(c4c(C)cccc4C)CC3)c2cc1OC`: the EC50 result was “inactive”.

`COc1cc2c3nnc(-c4ccc(F)cc4)c-3cn(Cc3cccc(N(C)C)c3)c2cc1OC`: the EC50 is > 80 µM (inactive).

Consider `COc1cc2c3nnc(-c4ccc(C)c(C)c4)c-3cn(Cc3ccc(F)cc3)c2cc1OC`, for which the EC50 is 16.2 µM.

For `COc1ccc(-c2nc(C(=O)N[C@@H](CC(C)C)C(=O)O)cn2-c2ccnc3cc(Cl)ccc23)c(OC)c1`, the EC50 is > 80 µM (inactive).

On to `COc1cc2c3nnc(-c4ccc(F)cc4)c-3cn(CCc3ccccc3)c2cc1OC`, for which the EC50 result was “inactive”.

Turning to `Cc1cccc(C)c1-c1nc(C(=O)N[C@@H](CC(C)C)C(=O)O)cn1-c1ccnc2cc(Cl)ccc12`, the EC50 is 9.23 µM.

With `COc1cc2nc(C3CC3)nc(N3CCN(C(=O)c4ccccc4OC)CC3)c2cc1OC`, the EC50 entry was “inactive”.

On to `COc1cc2ncc3c(-c4ccc(F)cc4)n[nH]c3c2cc1OC`, for which the EC50 is > 80 µM (inactive).

As for `c1ccc(Cn2cc3c(-c4ccccc4)nnc-3c3ccccc32)cc1`, the EC50 result was “inactive”.

Regarding `Cc1ccc(Cn2cc3c(-c4ccc(Cl)cc4)nnc-3c3cc4c(cc32)OCO4)cc1`, the EC50 result is “inactive”.

`COc1cc2c3nnc(-c4ccc(F)cc4)c-3cn(Cc3ccc(F)cc3)c2cc1OC`: the EC50 was 11.1 µM.

`COc1cc2c3nnc(-c4ccccc4)c-3cn(Cc3ccc(F)cc3)c2cc1OC`: the EC50 is 16.6 µM.

In the case of `COc1cc2c3nnc(-c4ccc(Cl)cc4)c-3cn(Cc3ccc(F)cc3)c2cc1OC`, the EC50 is 2.95 µM.

For the molecule `COc1cc2nc(CCN3CCN(c4ccccc4OC)CC3)nc(N3CCN(c4ccccc4OC)CC3)c2cc1OC`, the EC50 entry was “inactive”.

With `COc1cc2nc(C3CC3)nc(N3CCN(Cc4ccc(C)cc4)CC3)c2cc1OC`, the EC50 result is “inactive”.

Take `Fc1ccc(Cn2cc3c(-c4ccc(Cl)cc4)nnc-3c3cc4c(cc32)OCO4)cc1`: the EC50 was 9.12 µM.

As for `CCc1ccc(-c2nnc3c4cc(OC)c(OC)cc4n(Cc4ccc(F)cc4)cc2-3)cc1`, the EC50 is 9.22 µM.

On to `COc1ccc2c3nnc(-c4ccc(C)cc4)c-3cn(Cc3ccc(C)cc3)c2c1`, for which the EC50 was 11.2 µM.

Turning to `COc1ccccc1-c1nc(C(=O)N[C@@H](CC(C)C)C(=O)O)cn1-c1ccnc2ccccc12`, the EC50 was > 80 µM (inactive).

For `COc1cccc(OC)c1-c1nc(C(=O)N[C@@H](CC(C)C)C(=O)O)cn1-c1ccnc2cc(Cl)ccc12`, the EC50 was 2.01 µM and 4.14 µM.

For the molecule `COc1cccc(OC)c1-c1nc(C(=O)O)cn1-c1ccncc1`, the EC50 is > 80 µM (inactive).

Regarding `COc1ccc(-c2nnc3c4ccccc4n(Cc4ccc(C)cc4)cc2-3)cc1`, the EC50 was > 80 µM (inactive).

In the case of `COc1cccc(OC)c1-c1nc(C(=O)N[C@@H](CC(C)C)C(=O)O)cn1-c1ccnc2ccccc12`, the EC50 is 3.76 µM.

Consider `COc1cccc(OC)c1-c1nc(C(=O)N[C@@H](CC(C)C)C(=O)O)cn1-c1ccncc1`, for which the EC50 result is “inactive”.

For `COc1cc2c3nnc(-c4ccc(Cl)cc4)c-3cn(Cc3ccc(C)cc3)c2cc1OC`, the EC50 is 18.1 µM.

On to `COc1cccc(OC)c1-c1cc(C(=O)N[C@@H](CC(C)C)C(=O)OC(C)(C)C)nn1-c1ccnc2cc(Cl)ccc12`, for which the EC50 is 1.35 µM.

Regarding `CCOc1cc2c(N3CCN(c4ccccc4OC)CC3)nc(-c3ccc(OC)c(OC)c3)nc2cc1OC`, the EC50 was > 80 µM (inactive).

For the molecule `COc1cc2nc(C3CCC3)nc(N3CCN(c4ccccc4C)CC3)c2cc1OC`, the concentration for a half-maximal effect (EC50) was 14.9 µM.

`COc1cccc(OC)c1-c1cc(C(=O)O)nn1-c1ccnc2cc(Cl)ccc12`: the EC50 was > 80 µM (inactive).

With `COc1cc2nc(-c3ccccc3)nc(N3CCN(c4ccc(F)cc4)CC3)c2cc1OC`, the EC50 is > 80 µM (inactive).

Take `COc1ccccc1-c1nc(C(=O)N[C@@H](CC(C)C)C(=O)O)cn1-c1ccnc2cc(Cl)ccc12`: the EC50 result is “inactive”.

In the case of `COc1ccc(-c2nnc3c4ccccc4n(Cc4ccc(Cl)cc4)cc2-3)cc1`, the EC50 entry was “inactive”.

On to `COc1cc2nc(C3CCC3)nc(N3CCN(c4ccccc4F)CC3)c2cc1OC`, for which the EC50 is 17.7 µM.

Consider `CCOc1ccc(-c2nnc3c4cc(OC)c(OC)cc4n(Cc4ccc(F)cc4)cc2-3)cc1`, for which the EC50 is 8.05 µM.

As for `CCOc1ccccc1N1CCN(c2nc(C3CC3)nc3cc(OC)c(OC)cc23)CC1`, the 50% effective concentration (EC50) is 6.08 µM.

Regarding `COc1ccc(Cn2cc3c(-c4ccc(OC)cc4)nnc-3c3ccccc32)cc1`, the EC50 is > 80 µM (inactive).

`CCOC(=O)c1cc(-c2c(OC)cccc2OC)n(-c2ccnc3cc(Cl)ccc23)n1`: the EC50 was > 80 µM (inactive).

Consider `COc1cccc(OC)c1-c1cc(C(=O)NC2(C(=O)O)C3CC4CC(C3)CC2C4)nn1-c1ccc(C(=O)N(C)CCCN(C)C)cc1C(C)C` (stereo not drawn), for which the EC50 is > 80 µM (inactive).

For the molecule `COc1cc2nc(C)nc(N3CCN(c4ccccc4OC)CC3)c2cc1OC`, the EC50 was > 80 µM (inactive).

As to `Cc1ccc(Cn2cc3c(-c4ccc(F)cc4)nnc-3c3cc4c(cc32)OCO4)cc1`, the EC50 was 5.49 µM and 8.2 µM.

With `COc1cccc(OC)c1-c1nc(C(=O)N[C@@H](CC(C)C)C(=O)O)cn1-c1ccc(C)cc1`, the EC50 was > 80 µM (inactive).

For `COc1cc2nc(C3CCC3)nc(N3CCN(c4ccccc4Cl)CC3)c2cc1OC`, the half-maximal effective concentration (EC50) is 12.2 µM.

Consider `CC(C)C[C@H](NC(=O)c1cn(-c2ccncc2)c(-c2ccccc2)n1)C(=O)O`, for which the EC50 is > 80 µM (inactive).

Consider `COc1ccc(-c2nnc3c4ccccc4n(CC4CC4)cc2-3)cc1`, for which the EC50 result is “inactive”.

In the case of `COc1cc2c3nnc(-c4ccc(F)cc4)c-3cn(Cc3ccc(C)cc3)c2cc1OC`, the EC50 was 6.9 µM and 6.79 µM.

Turning to `COc1cc2nc(C3CC3)nc(N3CCN(C(=O)OC(C)(C)C)CC3)c2cc1OC`, the EC50 result is “inactive”.

On to `COc1cc2c3nnc(-c4ccc(C)cc4)c-3cn(Cc3ccc(F)cc3)c2cc1OC`, for which the EC50 is 6.4 µM.

On to `COc1ccc2c(c1)c1nnc(-c3ccc(F)cc3)c-1cn2Cc1ccc(F)cc1`, for which the EC50 is 13.9 µM.

Regarding `Cc1ccc(Cn2cc3c(-c4ccc(C)c(C)c4)nnc-3c3cc4c(cc32)OCO4)cc1`, the EC50 is 16.4 µM.

For `COc1cc2nc(C3CC3)nc(N3CCN(S(=O)(=O)c4ccccc4)CC3)c2cc1OC`, the EC50 was > 80 µM (inactive).

On to `CCn1cc2c(-c3ccc(OC)cc3)nnc-2c2ccccc21`, for which the EC50 is > 80 µM (inactive).
